Results as given in article PMC7824341, “Phenylhydrazone and Quinazoline Derivatives from the Cold-Seep-Derived Fungus Penicillium oxalicum” (Marine Drugs, 2020).
In brackets after ≈: the same amount, converted by molar mass. Like-named read-outs stand apart in the source and are kept apart here.

Assays:
[1] = system: Chattonella marina; assay: Inhibition of marine microalgae; assay type: cell-based; settings: microalga Chattonella marina; for IC50: Chattonella marina, read-out: IC50 C. marina
Method: (§1) Mariculture is often threatened by harmful algal blooms and pathogenic bacteria. Compounds 1–5 and dankasterone A were assayed for inhibition of the three microalgae Chattonella marina, Heterosigma akashiwo, and Prorocentrum donghaiense, and the results are shown in Table 4. […] In addition, their inhibition against four marine-derived bacterial pathogens including Vibrio anguillarum, Vibrio harveyi, Vibrio parahaemolyticus, and Vibrio splendidus was detected using the disk diffusion method. […] The MIC values of active molecules were also measured, but only those of 4 and 5 (8 μg/mL) appeared lower than 10 μg/mL. […] In view of the above inhibitory effects of 1, 4, 5, and dankasterone A on the microalgal and bacterial species, their toxicities to the marine zooplankton Artemia salina were also tested.

[2] = system: Heterosigma akashiwo; assay: Inhibition of marine microalgae; assay type: cell-based; settings: microalga Heterosigma akashiwo; for IC50: Heterosigma akashiwo, read-out: IC50 H. akashiwo
Method: as §1

[3] = system: Prorocentrum donghaiense; assay: Inhibition of marine microalgae; assay type: cell-based; settings: microalga Prorocentrum donghaiense; for IC50: Prorocentrum donghaiense, read-out: IC50 P. donghaiense
Method: as §1

[4] = system: Vibrio anguillarum; assay: Antibacterial disk diffusion method; assay type: cell-based; settings: at 20 μg/disk; for zone of inhibition at 20 µg/disc: Vibrio anguillarum, read-out: Inhibitory Zone Diameter V. anguillarum
Method: as §1

[5] = system: Vibrio harveyi; assay: Antibacterial disk diffusion method; assay type: cell-based; settings: at 20 μg/disk, read-out: Inhibitory Zone Diameter V. harveyi
Method: as §1

[6] = system: Vibrio parahaemolyticus; assay: Antibacterial disk diffusion method; assay type: cell-based; settings: at 20 μg/disk, read-out: Inhibitory Zone Diameter V. parahaemolyticus
Method: as §1

[7] = system: Vibrio splendidus; assay: Antibacterial disk diffusion method; assay type: cell-based; settings: at 20 μg/disk; for zone of inhibition at 20 µg/disc: Vibrio splendidus, read-out: Inhibitory Zone Diameter V. splendidus
Method: as §1

[8] = in vivo; settings: in vivo; marine zooplankton Artemia salina
Method: as §1

[9] = system: V. harveyi and V. parahaemolyticus; assay: MIC of active molecules against marine-derived bacterial pathogens; assay type: cell-based, Vibrio harveyi, Vibrio parahaemolyticus; settings: bacterial strain not given, active molecules were those inhibiting V. harveyi and V. parahaemolyticus
Method: as §1

[10] = system: Artemia salina; assay: in vivo; settings: marine zooplankton Artemia salina
Method: as §1

Row | SMILES | IC50 [1] | IC50 [2] | IC50 [3] | zone of inhibition at 20 µg/disc [4] | zone of inhibition at 20 µg/disc [5] | zone of inhibition at 20 µg/disc [6] | zone of inhibition at 20 µg/disc [7] | LC50 [8] | IC50 C. marina [1] | IC50 P. donghaiense [3] | Inhibitory Zone Diameter V. anguillarum [4] | MIC ([9]; read-out: MIC) | IC50 H. akashiwo [2] | Inhibitory Zone Diameter V. splendidus [7] | LC50 A. salina [10] | MIC [9]
1 | CC(C)C(C)C=CC(C)C1CCC(=O)C23CC(=O)C4=CC(=NNc5ccccc5C(=O)O)CCC4(C)C2CCC13C (stereo not shown) [Compound 1, Penoxahydrazone A] | 1.2 µg/mL (≈ 2.15 µM) | 3.7 µg/mL (≈ 6.62 µM) | 0.68 µg/mL (≈ 1.22 µM) | 0 mm | > 10 mm | > 10 mm | 0 mm | 58 µg/mL (≈ 104 µM) | – | – | – | – | – | – | – | –
2 | COC(=O)C(Cc1ccc(O)cc1)n1cnc2ccccc2c1=O (stereo not shown) [Compound 4, Penoxazolone A] | – | 8.1 µg/mL (≈ 25 µM) | – | – | > 10 mm | > 10 mm | 7.3 mm | > 100 µg/mL | 2.8 µg/mL (≈ 8.63 µM) | 0.57 µg/mL (≈ 1.76 µM) | 7.0 mm | 8 µg/mL | – | – | – | –
3 | COC(=O)C(Cc1ccc(O)cc1)n1cnc2ccccc2c1=O (stereo not shown) [Compound 5, Penoxazolone B] | – | – | – | – | – | – | – | – | 9.1 µg/mL (≈ 28.1 µM) | 1.2 µg/mL (≈ 3.7 µM) | 0 mm | – | 9.0 µg/mL (≈ 27.7 µM) | 7.0 mm | >100 µg/mL | 8 µg/mL
4 | [K+].[K+].[O]=[Cr](=[O])([O-])[O][Cr](=[O])(=[O])[O-] [Compound K2Cr2O7, K2Cr2O7, reference compound] | – | – | – | – | – | – | – | – | 0.60 µg/mL | 1.2 µg/mL | – | – | 2.4 µg/mL | – | 18 µg/mL | –
5 | O=C(N[C@H](CO)[C@H](O)c1ccc([N+](=O)[O-])cc1)C(Cl)Cl [chloramphenicol, reference compound] | – | – | – | 18 mm | 29 mm | 28 mm | 23 mm | – | – | – | – | – | – | – | – | –
6 | CC(C)[C@@H](C)/C=C/[C@@H](C)[C@H]1CCC(=O)[C@]23CC(=O)C4=CC(=O)CC[C@]4(C)[C@H]2CC[C@]13C [dankasterone A] | 1.9 µg/mL (≈ 4.47 µM) | 4.6 µg/mL (≈ 10.8 µM) | 1 µg/mL (≈ 2.36 µM) | 7 mm | > 10 mm | > 10 mm | 0 mm | 43 µg/mL (≈ 101 µM) | – | – | – | – | – | – | – | –
